Laboratory results: patent publication US7727960B2, “C5a receptor antagonists” (Jerini AG, priority 2003, dated 2010)
Values belong to the molecule of their own block, whether it stands above or below them. Positions of bridges follow the written chain, without caps; N, C: chain ends. Non-standard residues stand in square brackets, D forms with d. Residues, ends and D or L forms follow the SMILES beside them. No end group written: not given here. *: point of attachment. Phe(4-guanidino) = N=C(N)Nc1ccc(C[C@H](N)C(=O)O)cc1; X3 = O=C1CNC(=O)N1[C@@H](Cc1ccccc1)C(=O)*; X4 = O=C1CCC(=O)N1[C@@H](Cc1ccccc1)C(=O)*; His(τ-Me) = Cn1cnc(C[C@H](N)C(=O)O)c1; Acetyl(4-pyridyl) = O=C(Cc1ccncc1)*; Bta = N[C@@H](Cc1csc2ccccc12)C(=O)O; 2Thi = N[C@@H](Cc1cccs1)C(=O)O; dCha = N[C@H](CC1CCCCC1)C(=O)O; hLeu = CC(C)CC[C@H](N)C(=O)O; Nle = CCCC[C@H](N)C(=O)O; Orn = NCCC[C@H](N)C(=O)O; Nva = CCC[C@H](N)C(=O)O

Columns and labels:
human C5aR (CD88) [1] = molecular target: T1, human C5aR (CD88) (Homo sapiens, UniProt P21730); assay: Determination of the IC50 value in an enzyme release assay (functional assay, antagonistic activity); type: cell-based; conditions: for inhibitory activity (in words): noteworthy = IC50 of less than 200 nM in the functional assay; for IC50: antagonistic activity, enzyme release assay in RBL cells expressing human C5aR (CD88), read-out: activity (group); for IC50-value compared to compound 40 (in words): arginine replaced by hydrophobic substitutions
T1 construct: expressed in transfected cells; host or cells: rat basophilic leukemia cells (RBL)
T1 sequence (P21730 1-350): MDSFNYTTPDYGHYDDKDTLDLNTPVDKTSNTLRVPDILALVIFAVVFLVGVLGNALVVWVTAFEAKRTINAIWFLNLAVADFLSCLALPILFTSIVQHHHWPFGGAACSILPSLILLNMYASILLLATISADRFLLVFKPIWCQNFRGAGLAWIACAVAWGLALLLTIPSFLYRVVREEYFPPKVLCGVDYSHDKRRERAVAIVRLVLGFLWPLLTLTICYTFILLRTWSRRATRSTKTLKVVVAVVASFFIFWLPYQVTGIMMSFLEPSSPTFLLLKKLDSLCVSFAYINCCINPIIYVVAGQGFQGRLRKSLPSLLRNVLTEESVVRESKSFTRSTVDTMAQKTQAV

human C5aR (CD88) [2] = molecular target: T1, human C5aR (CD88); assay: Determination of EC50 values in an enzyme release assay (agonistic activity, no C5a added); type: cell-based; conditions: cellular assay, up to a concentration of at least 1430 nM
Protocol: The determination of the EC50 value was performed in a way similar to the procedure described in example 11, with the only exception that 30 μl of the compound to be tested were mixed with 75 μl of the cell suspension described in example 11. There was no preincubation or addition of C5a for stimulation of the enzyme release.

human C5aR (CD88) [3] = molecular target: T2, human C5aR (CD88) (human, UniProt P21730 1-350); assay: cell-based or functional assay
T2 sequence (looked up): T1 sequence (P21730 1-350)

Molecule: Ac-Phe-Orn-cha-cha-Bta-Phe-NH2
- agonistic activity (in words) (human C5aR (CD88) [2]): pure antagonists

Molecule: NCCC[C@H](NC(=O)[C@H](Cc1ccccc1)N1C(=O)CCC1=O)C(=O)N1CCC[C@H]1C(=O)N[C@H](CC1CCCCC1)C(=O)N[C@@H](Cc1csc2ccccc12)C(=O)N[C@@H](Cc1ccccc1)C(N)=O [Compound 133, (—CO—CH2—CH2—CO—)-Phe-Orn-Pro-cha-Bta-Phe-NH2] (X4-[Orn]P[dCha][Bta]F-NH2)
- IC50 (human C5aR (CD88) [1]): 200 to 2000 nM

Molecule: CSCC[C@@H]1NC(=O)[C@H](Cc2c[nH]c3ccccc23)NC(=O)[C@@H](CC2CCCCC2)NC(=O)[C@@H]2CCCN2C(=O)[C@@H](NC(=O)[C@H](Cc2ccccc2)NC(C)=O)CCCNC1=O [Compound 29, Ac-Phe-[Orn-Pro-cha-Trp-Met]] (Ac-F[Orn]P[dCha]WM; lactam 2-C)
- IC50-value compared to compound 40 (in words) (human C5aR (CD88) [1]): without a significant increase of the IC50-value
- inhibitory activity (in words) (human C5aR (CD88) [1]): noteworthy inhibitory activity

Molecule: CC(=O)N[C@@H](Cc1ccccc1)C(=O)N[C@H]1CCCNC(=O)[C@H](CCC(C)C)NC(=O)[C@H](Cc2c[nH]c3ccccc23)NC(=O)[C@@H](CC2CCCCC2)NC(=O)[C@@H]2CCCN2C1=O [Compound 32, Ac-Phe-[Orn-Pro-cha-Trp-Hle]] (Ac-F[Orn]P[dCha]W[hLeu]; lactam 2-C)
- IC50-value compared to compound 40 (in words) (human C5aR (CD88) [1]): without a significant increase of the IC50-value
- inhibitory activity (in words) (human C5aR (CD88) [1]): noteworthy inhibitory activity

Molecule: CC(=O)N[C@@H](Cc1ccccc1)C(=O)N[C@H]1CCCNC(=O)[C@H](Cc2cn(C)cn2)NC(=O)[C@H](Cc2c[nH]c3ccccc23)NC(=O)[C@@H](CC2CCCCC2)NC(=O)[C@@H]2CCCN2C1=O [Compound 20, Ac-Phe-[Orn-Pro-cha-Trp-Ecr]] (Ac-F[Orn]P[dCha]W[His(τ-Me)]; lactam 2-C)
- inhibitory activity (in words) (human C5aR (CD88) [1]): noteworthy inhibitory activity

Molecule: CCSC[C@@H]1NC(=O)[C@H](Cc2c[nH]c3ccccc23)NC(=O)[C@@H](CC2CCCCC2)NC(=O)[C@@H]2CCCN2C(=O)[C@@H](NC(=O)[C@H](Cc2ccccc2)NC(C)=O)CCCNC1=O [Compound 34, Ac-Phe-[Orn-Pro-cha-Trp-Ebd]] (Ac-F[Orn]P[dCha]WC(Et); lactam 2-C)
- IC50-value compared to compound 40 (in words) (human C5aR (CD88) [1]): without a significant increase of the IC50-value
- inhibitory activity (in words) (human C5aR (CD88) [1]): noteworthy inhibitory activity

Molecule: CCC[C@@H]1NC(=O)[C@H](Cc2c[nH]c3ccccc23)NC(=O)[C@@H](CC2CCCCC2)NC(=O)[C@@H]2CCCN2C(=O)[C@@H](NC(=O)[C@H](Cc2ccccc2)NC(C)=O)CCCNC1=O [Compound 31, Ac-Phe-[Orn-Pro-cha-Trp-Nva]] (Ac-F[Orn]P[dCha]W[Nva]; lactam 2-C)
- IC50-value compared to compound 40 (in words) (human C5aR (CD88) [1]): without a significant increase of the IC50-value
- inhibitory activity (in words) (human C5aR (CD88) [1]): noteworthy inhibitory activity

Now from value to molecule, other results behind:

- inhibitory activity (in words) (human C5aR (CD88) [1]): noteworthy inhibitory activity
Molecule: Ac-Phe-[Orn-Ser-cha-Trp-Phe]

- IC50 (human C5aR (CD88) [1]): > 2000 nM
Molecule: CC(=O)N[C@@H](C)C(=O)N[C@H]1CCCNC(=O)[C@H](CCCN=C(N)N)NC(=O)[C@H](Cc2c[nH]c3ccccc23)NC(=O)[C@@H](CC2CCCCC2)NC(=O)[C@@H]2CCCN2C1=O [Compound 45] (Ac-A[Orn]P[dCha]WR; lactam 2-C)

- inhibitory activity (in words) (human C5aR (CD88) [1]): noteworthy inhibitory activity
Molecule: Ac-Phe-[Orn-Hyp(COCH2OCH2CH2OCH2CH2OCH3)-cha-Trp-Phe]

- inhibitory activity (in words) (human C5aR (CD88) [1]): noteworthy inhibitory activity
Molecule: CC(=O)N[C@@H](Cc1ccccc1)C(=O)N[C@H]1CCCNC(=O)[C@H](Cc2cccs2)NC(=O)[C@H](Cc2c[nH]c3ccccc23)NC(=O)[C@@H](CC2CCCCC2)NC(=O)[C@@H]2CCCN2C1=O [Compound 38, Ac-Phe-[Orn-Pro-cha-Trp-Thi]] (Ac-F[Orn]P[dCha]W[2Thi]; lactam 2-C)
- IC50-value compared to compound 40 (in words) (human C5aR (CD88) [1]): without a significant increase of the IC50-value

- IC50 (human C5aR (CD88) [1]): 50 to 200 nM
Molecule: NCCC[C@H](NC(=O)[C@H](Cc1ccccc1)N1C(=O)CNC1=O)C(=O)N1CCC[C@H]1C(=O)N[C@H](CC1CCCCC1)C(=O)N[C@@H](Cc1csc2ccccc12)C(=O)N[C@@H](Cc1ccccc1)C(N)=O [Compound 130, (—CO—CH2—NH—CO—)-Phe-Orn-Pro-cha-Bta-Phe-NH2] (X3-[Orn]P[dCha][Bta]F-NH2)

- IC50 activity group, enzyme release assay (human C5aR (CD88) [3]): ≤ 200 nM
B1: Fbi-Phe-[Orn-Pro-cha-Trp-Nle] (peptide)
peptide: {Acetyl(4-pyridyl)}-F[Orn]P[dCha]W[Nle]
modifications: lactam 2-C (inferred)

- IC50 activity group, enzyme release assay (human C5aR (CD88) [3]): ≤ 2000 nM
B2: Ac-Phe-[Orn-Pro-cha-Trp-Guf] (peptide)
peptide: Ac-F[Orn]P[dCha]W[Phe(4-guanidino)]
modifications: lactam (positions not given here); not fully specified (bridges); printed as Ac-Phe-[Orn-Pro-cha-Trp-Guf]
